Reference: publication PMC8160456, “Molecular Mechanism of Citrate Efflux by the Mitochondrial Citrate Transporter CT in Filamentous Fungus Mucor circinelloides WJ11” (Frontiers in Microbiology, 2021)

Molecular target: T1, CT (mitochondrial citrate transporter) (Mucor circinelloides, UniProt S2JNX7)
T1 construct: gene HMPREF1544_02933; complete ct gene, codon-optimised, pET30a(+) NdeI-ATG-ct-Histag-stop-HindIII (C-terminal His tag kept); E. coli BL21(DE3) inclusion bodies, urea-solubilised, Ni column, renatured, reconstituted in liposomes; about 32 kDa; three Mtc domains 10-104, 106-199, 209-296
T1 sequence (S2JNX7 1-301): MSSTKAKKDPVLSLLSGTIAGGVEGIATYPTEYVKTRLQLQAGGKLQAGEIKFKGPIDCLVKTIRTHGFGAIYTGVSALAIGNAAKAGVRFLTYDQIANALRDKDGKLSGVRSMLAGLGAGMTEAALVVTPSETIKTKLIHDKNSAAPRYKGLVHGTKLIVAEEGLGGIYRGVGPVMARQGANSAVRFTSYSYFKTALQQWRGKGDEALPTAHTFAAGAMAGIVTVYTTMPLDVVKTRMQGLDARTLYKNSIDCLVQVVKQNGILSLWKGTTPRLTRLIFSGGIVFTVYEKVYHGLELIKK
Test: inhibition of […]citrate/citrate exchange in CT-reconstituted liposomes
Format: biochemical
Conditions: 20 mM inhibitor; 0.01 mM [14C]citrate outside, 10 mM citrate inside; 2 min

Q: `Cc1ncc(COP(=O)(O)O)c(C=O)c1O` [pyridoxal-5'-phosphate] was tested. Which “inhibition at 20 mM” value did it give?
A: This activity was inhibited strongly by PLP
